# Earlier results as cited in paper PMC8277557 (Bioorganic & Medicinal Chemistry Letters, 2021).
# Like-named read-outs stand apart in the source and are kept apart here.
# How the values were obtained:
# CoV-2 3CLpro = details: for IC50: read-out: Literature IC50, CoV-2 3CLpro
# [1] = in vivo
compound,measurement,setting,value
Boceprevir,IC50,CoV-2 3CLpro; ref [16],4.13 ± 0.61 µM
same,IC50,CoV-2 3CLpro; ref [29],5.4 ± 1.53 µM
CC(C)C[C@H](NC(=O)OCc1ccccc1)C(=O)N[C@@H](C[C@@H]1CCNC1=O)C(=O)c1nc2ccccc2s1 [Compound 25c],IC50,CoV-1 3CLpro; read-out: Literature IC50,21 µM
O=C[C@H](C[C@@H]1CCNC1=O)NC(=O)[C@H](Cc1cccc(F)c1)NC(=O)c1cc2ccccc2[nH]1 [Compound 11b],IC50,CoV-2 3CLpro; ref [20],0.04 ± 0.002 µM
CCOC(=O)/C=C/[C@H](C[C@@H]1CCNC1=O)NC(=O)[C@H](CC(C)C)NC(=O)[C@@H](NC(=O)OCc1ccccc1)C(C)C [Compound 3],Ki,"CoV-1 3CLpro; read-out: Literature Ki, CoV-1 3CLpro, ref [19]",0.66 µM
CCOC(=O)/C=C/[C@H](C[C@@H]1CCNC1=O)NC(=O)[C@@H](CC(=O)[C@@H](NC(=O)c1cc(C)on1)C(C)C)Cc1ccc(F)cc1 [Rupintrivir],activity against SARS-CoV-2 3CLpro,"CoV-2 3CLpro; ref [16], [19]",inactive
same,activity against SARS-CoV-1 3CLpro,CoV-1 3CLpro,inactive
C[C@@H](OC(C)(C)C)[C@H](NC(=O)OCc1ccccc1)C(=O)N[C@@H](CC1CCCCC1)C(=O)N[C@H](C=O)C[C@@H]1CCNC1=O [TG-0205221],pharmacokinetic profile in rodents,[1],favourable pharmacokinetic profile
CCCC[C@@H](C=O)NC(=O)[C@H](CC(C)C)NC(=O)OCc1ccccc1 [Calpeptin],IC50,CoV-2 3CLpro; ref [16],10.7 ± 0.28 µM
same,IC50,CoV-2 3CLpro; ref [31],4.81 ± 0.18 µM
